Results from ChEMBL document CHEMBL1777762, “Design and synthesis of protein kinase Cα activators based on 'out of pocket' interactions” (Bioorg Med Chem Lett, 2011).
Active and inactive are the calls of the source. The rule behind the calls is not given here.

Tests used:
[1] = target: T1, Protein kinase C alpha type (Homo sapiens, UniProt P17252); experiment: Displacement of [3H]PDBu from human recombinant PKCalpha after 20 mins by liquid scintillation counting
[2] = target: T1, Protein kinase C alpha type; experiment: Activation of human recombinant PKCalpha assessed as rate of phosphate incorporation into PepTag C1 peptide at 1 to 100 uM after 40 mins by agarose gel electrophoresis analysis
[3] = target: T1, Protein kinase C alpha type; experiment: Activation of human recombinant PKCalpha assessed as rate of phosphate incorporation into PepTag C1 peptide at 0.01 uM after 40 mins by agarose gel electrophoresis analysis relative to control
[4] = target: T1, Protein kinase C alpha type; experiment: Activation of human recombinant PKCalpha assessed as rate of phosphate incorporation into PepTag C1 peptide at 100 uM after 40 mins by agarose gel electrophoresis analysis relative to control
[5] = target: T1, Protein kinase C alpha type; experiment: Activation of human recombinant PKCalpha assessed as rate of phosphate incorporation into PepTag C1 peptide at 10 uM after 40 mins by agarose gel electrophoresis analysis relative to control
[6] = target: T1, Protein kinase C alpha type; experiment: Activation of human recombinant PKCalpha assessed as rate of phosphate incorporation into PepTag C1 peptide at 1 uM after 40 mins by agarose gel electrophoresis analysis relative to control
[7] = target: T1, Protein kinase C alpha type; experiment: Activation of human recombinant PKCalpha assessed as rate of phosphate incorporation into PepTag C1 peptide at 0.0001 uM after 40 mins by agarose gel electrophoresis analysis relative to control
[8] = target: T1, Protein kinase C alpha type; experiment: Activation of human recombinant PKCalpha assessed as rate of phosphate incorporation into PepTag C1 peptide at 0.001 uM after 40 mins by agarose gel electrophoresis analysis relative to control
[9] = target: T1, Protein kinase C alpha type; experiment: Activation of human recombinant PKCalpha assessed as rate of phosphate incorporation into PepTag C1 peptide at 0.1 uM after 40 mins by agarose gel electrophoresis analysis relative to control

Structure (SMILES) | Ki [1] [µM] | Activity [2] | also measured
CCCCCCCCCCCCO[C@H]1[C@@H](OC(C)=O)[C@H](OC(C)=O)[C@@H](OCC#Cc2cccc3c2C(=O)O[C@]3(CO)COC(=O)C(C(C)(C)C)C(C)(C)C)[C@H](OC(C)=O)[C@H]1OC(C)=O | 2.34 | Active | –
CCCCCCCCCCCCOc1cccc2c1C(=O)O[C@]2(CO)COC(=O)CCCCCCCCCCC | > 3 | – | –
CCCCCCCCCCCCCC(=O)O[C@@H]1[C@@H](C)[C@@]2(O)[C@@H](C=C(CO)C[C@]3(O)C(=O)C(C)=C[C@@H]23)[C@@H]2C(C)(C)[C@]12OC(C)=O | – | – | Activity [3]: 62.4%; Activity [4]: 108%; Activity [5]: 100%; Activity [6]: 85.3%; Activity [7]: 0.58%; Activity [8]: 11.1%; Activity [9]: 80.6%
CCCCCCCCCCCCO[C@H]1[C@@H](OCc2ccccc2)[C@H](OCc2ccccc2)[C@@H](OCC#Cc2cccc3c2C(=O)O[C@]3(CO)COC(=O)C(C(C)(C)C)C(C)(C)C)[C@H](OCc2ccccc2)[C@H]1OCc1ccccc1 | > 20 | Active | –
CCCCCCCCCCCCOc1cccc2c1C(=O)O[C@]2(CO)COC(=O)C(C(C)(C)C)C(C)(C)C | 0.043 | – | –
CCCCCCCCCCCCO[C@@H]1[C@H](OCC=C(C)C)[C@@H](OC/C=C/C(C)C)[C@H](OCC#Cc2cccc3c2C(=O)O[C@]3(CO)COC(=O)C(C(C)(C)C)C(C)(C)C)[C@@H](OCC=C(C)C)[C@@H]1OCC=C(C)C | > 20 | Active | –
CCCCCCCCCCCCO[C@@H]1[C@H](OC)[C@@H](OC)[C@H](OCC#Cc2cccc3c2C(=O)O[C@]3(CO)COC(=O)C(C(C)(C)C)C(C)(C)C)[C@@H](OC)[C@@H]1OC | 0.6 | Active | –
CCCCCCCCCCCCO[C@H]1[C@@H](OCc2ccc(F)cc2)[C@H](OCc2ccc(F)cc2)[C@@H](OCC#Cc2cccc3c2C(=O)O[C@]3(CO)COC(=O)C(C(C)(C)C)C(C)(C)C)[C@H](OCc2ccc(F)cc2)[C@H]1OCc1ccc(F)cc1 | > 20 | Active | –
CCCCCCCCCCCCO[C@H]1[C@@H](OCc2ccc(C(C)C)cc2)[C@H](OCc2ccc(C(C)C)cc2)[C@@H](OCC#Cc2cccc3c2C(=O)O[C@]3(CO)COC(=O)C(C(C)(C)C)C(C)(C)C)[C@H](OCc2ccc(C(C)C)cc2)[C@H]1OCc1ccc(C(C)C)cc1 | > 20 | Active | –
